Publication PMC9001978, “Determining the Effects of Differential Expression of GRKs and β-arrestins on CLR-RAMP Agonist Bias” (Frontiers in Physiology, 2022)

What was measured:
[1] = target: T1, CLR-RAMP2 (Homo sapiens, UniProt O60895+Q16602); experiment: cAMP accumulation at CLR-RAMP2
[2] = target: T1, CLR-RAMP2; experiment: β-arrestin2 recruitment to CLR-RAMP2 (BRET); settings: HEK293T, n = 3
[3] = target: T2, CLR-RAMP1 (Homo sapiens, UniProt O60894+Q16602); experiment: β-arrestin2 recruitment to CLR-RAMP1 (BRET); settings: HEK293T, n = 3
T2 sequence (Q16602 23-461): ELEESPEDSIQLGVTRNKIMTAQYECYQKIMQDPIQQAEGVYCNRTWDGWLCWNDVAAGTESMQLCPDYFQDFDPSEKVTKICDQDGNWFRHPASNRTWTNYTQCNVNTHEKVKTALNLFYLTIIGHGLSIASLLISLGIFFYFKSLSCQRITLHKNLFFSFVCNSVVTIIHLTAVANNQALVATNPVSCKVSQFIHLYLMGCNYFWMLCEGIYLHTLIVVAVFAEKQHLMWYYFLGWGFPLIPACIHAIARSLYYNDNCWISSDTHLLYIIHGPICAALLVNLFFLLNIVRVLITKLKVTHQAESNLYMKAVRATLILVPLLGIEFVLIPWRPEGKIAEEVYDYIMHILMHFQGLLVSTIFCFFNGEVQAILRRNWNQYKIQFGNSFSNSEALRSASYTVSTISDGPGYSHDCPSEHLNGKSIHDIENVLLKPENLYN
T2 sequence (O60894 27-148): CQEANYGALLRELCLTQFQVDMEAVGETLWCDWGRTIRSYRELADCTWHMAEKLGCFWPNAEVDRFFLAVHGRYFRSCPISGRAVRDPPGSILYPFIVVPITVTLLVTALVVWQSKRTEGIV

[4] = target: T1, CLR-RAMP2; experiment: Internalisation of CLR-RAMP2 (BRET CLR-Nluc / RIT-Venus); settings: HEK293T, CLR-Nluc + FLAG-RAMP2, RIT-Venus BRET; mean ± SEM, n = 3-4
[5] = target: T1, CLR-RAMP2; experiment: β-arrestin1 recruitment to CLR-RAMP2 (BRET); settings: HEK293T, n = 3
[6] = target: T2, CLR-RAMP1; experiment: β-arrestin1 recruitment to CLR-RAMP1 (BRET); settings: HEK293T, n = 3
[7] = target: T3, CLR-RAMP3 (Homo sapiens, UniProt O60896+Q16602); experiment: Internalisation of CLR-RAMP3 (BRET CLR-Nluc / RIT-Venus); settings: HEK293T, CLR-Nluc + FLAG-RAMP3, RIT-Venus BRET; mean ± SEM, n = 4-5
T3 sequence (Q16602 23-461): as the sequence (Q16602 23-461) above
T3 sequence (O60896 24-148): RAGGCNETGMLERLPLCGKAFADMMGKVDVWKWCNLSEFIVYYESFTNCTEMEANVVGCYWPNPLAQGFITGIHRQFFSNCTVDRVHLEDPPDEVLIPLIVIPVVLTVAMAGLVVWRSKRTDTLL

[8] = target: T3, CLR-RAMP3; parameters: method as in Clark et al., 2021; settings: AM receptor 2 (AM2R), ref Clark et al., 2021; cited from earlier work
[9] = target: T2, CLR-RAMP1; experiment: Internalisation of CLR-RAMP1 (BRET CLR-Nluc / RIT-Venus); settings: HEK293T, CLR-Nluc + FLAG-RAMP1, RIT-Venus BRET; mean ± SEM, n = 3-4
[10] = target: T3, CLR-RAMP3; experiment: β-arrestin1 recruitment to CLR-RAMP3 (BRET); settings: HEK293T, n = 3
[11] = system: HEK293T cells; experiment: cAMP accumulation in HEK293T cells with endogenous CLR and RAMPs; assay type: cell-based; settings: far lower potency than expected of CLR with any RAMP
[12] = target: T2, CLR-RAMP1; experiment: cAMP accumulation at CLR-RAMP1
[13] = target: T3, CLR-RAMP3; experiment: β-arrestin2 recruitment to CLR-RAMP3 (BRET); settings: HEK293T, n = 3
[14] = CLR-Nluc + FLAG-RAMP1 + β-arrestin2-YFP, BRET, mean ± SEM
[15] = CLR-Nluc + FLAG-RAMP1 + β-arrestin1-YFP, BRET, mean ± SEM

T1 sequence (Q16602 23-461): as the sequence (Q16602 23-461) above
T1 sequence (O60895 43-175): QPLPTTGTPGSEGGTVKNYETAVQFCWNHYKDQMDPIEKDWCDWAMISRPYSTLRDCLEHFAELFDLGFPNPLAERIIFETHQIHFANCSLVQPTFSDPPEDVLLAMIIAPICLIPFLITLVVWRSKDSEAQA

With `CSCC[C@H](NC(=O)[C@H](CC(C)C)NC(=O)[C@H](CCC(N)=O)NC(=O)[C@H](Cc1c[nH]c2ccccc12)NC(=O)[C@H](CC(C)C)NC(=O)[C@H](CCCNC(=N)N)NC(=O)[C@H](Cc1c[nH]cn1)NC(=O)[C@H](CO)NC(=O)[C@H](CC(C)C)NC(=O)[C@H](CC(N)=O)NC(=O)[C@H](CCC(N)=O)NC(=O)[C@@H](NC(=O)[C@H](CCC(N)=O)NC(=O)[C@@H]1CSSC[C@H](NC(=O)CNC(=O)[C@@H](NC(=O)[C@H](CCCNC(=N)N)NC(=O)[C@H](CC(C)C)NC(=O)[C@H](CC(C)C)NC(=O)[C@H](CCC(N)=O)NC(=O)[C@H](C)NC(=O)[C@H](CCC(N)=O)NC(=O)[C@@H](N)[C@@H](C)O)C(C)C)C(=O)N[C@@H](C(C)C)C(=O)N[C@@H](CC(C)C)C(=O)NCC(=O)N[C@@H]([C@@H](C)O)C(=O)N1)C(C)C)C(=O)NCC(=O)N1CCC[C@H]1C(=O)N[C@@H](C)C(=O)NCC(=O)N[C@@H](CCCNC(=N)N)C(=O)N[C@@H](CCC(N)=O)C(=O)N[C@@H](CC(=O)O)C(=O)N[C@@H](CO)C(=O)N[C@@H](C)C(=O)N1CCC[C@H]1C(=O)N[C@H](C(=O)N[C@@H](CC(=O)O)C(=O)N1CCC[C@H]1C(=O)N[C@@H](CO)C(=O)N[C@@H](CO)C(=O)N1CCC[C@H]1C(=O)N[C@@H](Cc1c[nH]cn1)C(=O)N[C@@H](CO)C(=O)N[C@@H](Cc1ccc(O)cc1)C(N)=O)C(C)C` [AM2, adrenomedullin 2] the “Effect of barbadin pretreatment on cAMP accumulation” value ([1]; AM2 at CLR-RAMP2) was “far smaller”, the “Change in cAMP potency on β-arrestin2 overexpression” value ([1]; CLR-RAMP2, HEK293T, p = 0.02) was “significant decrease in potency” and the “Emax, β-arrestin2 recruitment” value ([2]; CLR-Nluc + FLAG-RAMP2 + β-arrestin2-YFP, BRET, mean ± SEM) was 9 ± 1 BRET units (x10^-3). For the same molecule, the “Emax, β-arrestin2 recruitment” value ([2]; GRK4 overexpressed) was 10 ± 2 BRET units (x10^-3), the “Emax, β-arrestin2 recruitment” value ([2]; GRK series: Vector) was 9 ± 1 BRET units (x10^-3) and the “Emax, β-arrestin2 recruitment” value [3, 14] was ~98 ± 21 BRET units (x10^-3). The “Emax, β-arrestin2 recruitment” value ([3]; GRK2 overexpressed) was ~54 ± 47 BRET units (x10^-3), the “Emax, β-arrestin2 recruitment” value ([3]; GRK3 overexpressed) was ~49 ± 8 BRET units (x10^-3) and the “Emax, β-arrestin2 recruitment” value ([3]; GRK4 overexpressed) was ~45 ± 4 BRET units (x10^-3). The “Emax, β-arrestin2 recruitment” value ([3]; GRK series: Vector) was ~98 ± 21 BRET units (x10^-3), the “Emax, internalisation” value [4] was ~-20 ± 18 BRET units (x10^-3) and the “Emax, β-arrestin1 recruitment” value ([5]; CLR-Nluc + FLAG-RAMP2 + β-arrestin1-YFP, BRET, mean ± SEM) was 3 ± 1 BRET units (x10^-3). The “Emax, β-arrestin1 recruitment” value ([5]; GRK2 overexpressed) was 7 ± 1 BRET units (x10^-3), the “Emax, β-arrestin1 recruitment” value ([5]; GRK3 overexpressed) was 11 ± 1 BRET units (x10^-3) and the “Emax, β-arrestin1 recruitment” value ([5]; GRK4 overexpressed) was 4 ± 1 BRET units (x10^-3). The “Emax, β-arrestin1 recruitment” value ([5]; GRK series: Vector) was 3 ± 1 BRET units (x10^-3), the “Emax, β-arrestin1 recruitment” value [6, 15] was ~63 ± 27 BRET units (x10^-3) and the “Emax, β-arrestin1 recruitment” value ([6]; GRK2 overexpressed) was ~46 ± 5 BRET units (x10^-3). The “Emax, β-arrestin1 recruitment” value ([6]; GRK3 overexpressed) was ~32 ± 2 BRET units (x10^-3), the “Emax, β-arrestin1 recruitment” value ([6]; GRK4 overexpressed) was ~28 ± 7 BRET units (x10^-3) and the “Emax, β-arrestin1 recruitment” value ([6]; GRK6 overexpressed) was ~10 ± 6 BRET units (x10^-3). The “Emax, β-arrestin1 recruitment” value ([6]; GRK series: Vector) was ~63 ± 26 BRET units (x10^-3), the “Emax, internalisation” value [7] was ~-8 ± 3 BRET units (x10^-3) and the “Rank order of potency” value [8] was “equipotent agonists”. For the same molecule, the “Emax, internalisation” value [9] was ~-63 ± 41 BRET units (x10^-3).

For `CC[C@H](C)[C@H](NC(=O)[C@H](CCC(N)=O)NC(=O)[C@H](Cc1c[nH]cn1)NC(=O)[C@H](C)NC(=O)[C@H](CC(C)C)NC(=O)[C@H](CCCCN)NC(=O)[C@H](CCC(N)=O)NC(=O)[C@@H](NC(=O)[C@@H](NC(=O)[C@@H]1CSSC[C@H](NC(=O)CNC(=O)[C@H](Cc2ccccc2)NC(=O)[C@H](CO)NC(=O)[C@H](CCCNC(=N)N)NC(=O)[C@H](CC(C)C)NC(=O)CNC(=O)[C@H](CCC(N)=O)NC(=O)[C@H](Cc2ccccc2)NC(=O)[C@H](CC(N)=O)NC(=O)[C@H](CC(N)=O)NC(=O)[C@H](CCSC)NC(=O)[C@H](CO)NC(=O)[C@H](CCC(N)=O)NC(=O)[C@H](CCCNC(=N)N)NC(=O)[C@@H](N)Cc2ccc(O)cc2)C(=O)N[C@@H](CCCNC(=N)N)C(=O)N[C@@H](Cc2ccccc2)C(=O)NCC(=O)N[C@@H]([C@@H](C)O)C(=O)N1)[C@@H](C)O)C(C)C)C(=O)N[C@@H](Cc1ccc(O)cc1)C(=O)N[C@@H](CCC(N)=O)C(=O)N[C@@H](Cc1ccccc1)C(=O)N[C@H](C(=O)N[C@@H](CC(=O)O)C(=O)N[C@@H](CCCCN)C(=O)N[C@@H](CC(=O)O)C(=O)N[C@@H](CCCCN)C(=O)N[C@@H](CC(=O)O)C(=O)N[C@@H](CC(N)=O)C(=O)N[C@H](C(=O)N[C@@H](C)C(=O)N1CCC[C@H]1C(=O)N[C@@H](CCCNC(=N)N)C(=O)N[C@@H](CO)C(=O)N[C@@H](CCCCN)C(=O)N[C@H](C(=O)N[C@@H](CO)C(=O)N1CCC[C@H]1C(=O)N[C@@H](CCC(N)=O)C(=O)NCC(=O)N[C@@H](Cc1ccc(O)cc1)C(N)=O)[C@@H](C)CC)C(C)C)[C@@H](C)O` [AM, adrenomedullin], the “Emax, β-arrestin1 recruitment” value ([10]; CLR-Nluc + FLAG-RAMP3 + β-arrestin1-YFP, BRET, mean ± SEM) was 8 ± 1 BRET units (x10^-3), the “Emax, β-arrestin1 recruitment” value ([10]; GRK2 overexpressed) was 6 ± 1 BRET units (x10^-3) and the “Emax, β-arrestin1 recruitment” value ([10]; GRK3 overexpressed) was 5 ± 1 BRET units (x10^-3). The “Emax, β-arrestin1 recruitment” value ([10]; GRK4 overexpressed) was 4 ± 1 BRET units (x10^-3), the “Emax, β-arrestin1 recruitment” value ([10]; GRK series: Vector) was 7 ± 1 BRET units (x10^-3) and the “Emax, β-arrestin2 recruitment” value [3, 14] was ~98 ± 10 BRET units (x10^-3). For the same molecule, the “Emax, β-arrestin2 recruitment” value ([3]; GRK2 overexpressed) was ~54 ± 4 BRET units (x10^-3), the “Emax, β-arrestin2 recruitment” value ([3]; GRK3 overexpressed) was ~47 ± 3 BRET units (x10^-3) and the “Emax, β-arrestin2 recruitment” value ([3]; GRK4 overexpressed) was ~48 ± 3 BRET units (x10^-3). For the same molecule, the “Emax, β-arrestin2 recruitment” value ([3]; GRK5 overexpressed) was 11 ± 1 BRET units (x10^-3), the “Emax, β-arrestin2 recruitment” value ([3]; GRK series: Vector) was ~98 ± 10 BRET units (x10^-3) and the “Emax, β-arrestin1 recruitment” value [6, 15] was ~63 ± 14 BRET units (x10^-3). For the same molecule, the “Emax, β-arrestin1 recruitment” value ([6]; GRK2 overexpressed) was ~57 ± 7 BRET units (x10^-3), the “Emax, β-arrestin1 recruitment” value ([6]; GRK3 overexpressed) was ~43 ± 5 BRET units (x10^-3) and the “Emax, β-arrestin1 recruitment” value ([6]; GRK4 overexpressed) was ~39 ± 7 BRET units (x10^-3). The “Emax, β-arrestin1 recruitment” value ([6]; GRK6 overexpressed) was ~11 ± 2 BRET units (x10^-3), the “Emax, β-arrestin1 recruitment” value ([6]; GRK series: Vector) was ~63 ± 14 BRET units (x10^-3) and the “Emax, internalisation” value [7] was -5 ± 1 BRET units (x10^-3). For the same molecule, the “cAMP response via endogenous low levels of CLR and RAMPs” value [11] was “small response”, the “Emax, internalisation” value [9] was ~-44 ± 42 BRET units (x10^-3) and the “Emax, cAMP accumulation” value ([12]; HEK293T, CLR-Nluc + FLAG-RAMP1, 30 min stimulation, LANCE ultra, mean ± SEM, n = 3-4) was 84.7 ± 3.0 percentage 100 μM forskolin. For the same molecule, the “Emax, cAMP accumulation” value ([12]; HEK293T, GRK2 overexpressed, 30 min, n = 3) was 61.6 ± 3.7 percentage 100μM forskolin, the “Emax, cAMP accumulation” value ([12]; HEK293T, GRK3 overexpressed, 30 min, n = 3) was 46.5 ± 2.9 percentage 100μM forskolin and the “Emax, cAMP accumulation” value ([12]; HEK293T, GRK4 overexpressed, 30 min, n = 3) was 51.3 ± 5.3 percentage 100μM forskolin. The “Emax, cAMP accumulation” value ([12]; HEK293T, GRK5 overexpressed, 30 min, n = 3) was 40.0 ± 4.8 percentage 100μM forskolin, the “Emax, cAMP accumulation” value ([12]; HEK293T, GRK6 overexpressed, 30 min, n = 3) was 58.9 ± 7.4 percentage 100μM forskolin and the “Emax, cAMP accumulation” value ([12]; HEK293T, β-arrestin1 overexpressed, 500 μM IBMX, mean ± SEM, n = 4) was 98.6 ± 2.4 percentage 100 μM forskolin. The “Emax, cAMP accumulation” value ([12]; HEK293T, β-arrestin2 overexpressed, 500 μM IBMX, mean ± SEM, n = 3-4) was 99.3 ± 2.1 percentage 100 μM forskolin, the “Emax, cAMP accumulation” value ([12]; HEK293 cells, 500 μM IBMX, mean ± SEM, n = 4) was 81.1 ± 7.9 percentage 100 μM forskolin and the “Emax, cAMP accumulation” value ([12]; HEK293Δβ-arr1/2 cells, 500 μM IBMX, mean ± SEM, n = 4) was 89.0 ± 5.4 percentage 100 μM forskolin. The “Emax, cAMP accumulation” value ([12]; pre-treated with 100 μM barbadin, 30 min, mean ± SEM, n = 5-6) was ~91.4 ± 5.5 percentage 100μM forskolin, the “Emax, cAMP accumulation” value ([12]; pre-treated with 1% DMSO, 30 min, mean ± SEM, n = 5-6) was 88.0 ± 5.2 percentage 100μM forskolin and the “Emax, β-arrestin2 recruitment” value ([13]; CLR-Nluc + FLAG-RAMP3 + β-arrestin2-YFP, BRET, mean ± SEM) was 11 ± 1 BRET units (x10^-3). The “Emax, β-arrestin2 recruitment” value ([13]; GRK2 overexpressed) was 8 ± 1 BRET units (x10^-3), the “Emax, β-arrestin2 recruitment” value ([13]; GRK3 overexpressed) was 11 ± 2 BRET units (x10^-3) and the “Emax, β-arrestin2 recruitment” value ([13]; GRK4 overexpressed) was 8 ± 1 BRET units (x10^-3). The “Emax, β-arrestin2 recruitment” value ([13]; GRK series: Vector) was 11 ± 1 BRET units (x10^-3).
